Columns and labels:
[1] = Inhibition of His-tagged HSD17B13 (unknown origin) using estradiol as substrate incubated for 2 hrs and measured by LC-MS/MS analysis; set-up: species or system Homo sapiens
[2] = species on record: Homo sapiens; assay: Ratio of Ki for inhibition of His-tagged HSD17B13 (unknown origin) using LTB3 as substrate to Ki for His-tagged HSD17B13 (unknown origin) using estradiol as substrate
[3] = Inhibition of His-tagged HSD17B13 (unknown origin) using LTB3 as substrate incubated for 1 hr and measured after 1 hr by fluorescence based assay; set-up: species or system Homo sapiens

Row | SMILES | Ki [1] [µM] | Ratio Ki [2] | Ki [3] [µM]
1 | Cc1cc(-c2ccc(-c3cccc(O)c3)s2)ccc1O | 7.58 | 0.14 | 1.07
2 | Oc1cccc(-c2nccc3cc(O)ccc23)c1 | 8.55 | > 3.5 | > 30
3 | O=C1c2ccc(O)cc2C(=O)c2ccc(O)cc21 [ANTHRAFLAVICACID] | 0.32 | 8.8 | 2.81
4 | CCOC(=O)c1cccc(-n2c(-c3ccncc3)nc3cc(OC)ccc32)c1 | > 30 | < 0.091 | 2.72
